In patent US12252524B2, “GIP/GLP1 co-agonist compounds” (Eli Lilly and Company, priority 2018, dated 2025):
Numbered stars: 1 amine (or outer) side, 2 acyl side, 3 side chain; on linkers, the order of the positions; unused ones are H or OH. Square brackets hold non-standard residues; d marks the D form. Side chains are listed from the residue outwards. Peptide text beside a SMILES is read from it. * marks the point of attachment. C20 diacid = O=C(O)CCCCCCCCCCCCCCCCCCC(=O)*; γGlu = O=C(O)[C@H](CCC(=O)[*:2])N[*:1]; Desaminotyrosyl = O=C(CCc1ccc(O)cc1)*; αMeF = C[C@](N)(Cc1ccccc1)C(=O)O; AEEA = NCCOCCOCC(=O)O; Aib = CC(C)(N)C(=O)O

Key:
human Gcg receptor = target: T1, human Gcg receptor (Homo sapiens, UniProt P47871); assay: [125I]-Glucagon binding (SPA), human Gcg receptor; conditions: read-out: hGLcgR Ki, nM (SEM, n)
T1 construct: expressed in transfected cells; crude membranes
T1 sequence (P47871 26-477): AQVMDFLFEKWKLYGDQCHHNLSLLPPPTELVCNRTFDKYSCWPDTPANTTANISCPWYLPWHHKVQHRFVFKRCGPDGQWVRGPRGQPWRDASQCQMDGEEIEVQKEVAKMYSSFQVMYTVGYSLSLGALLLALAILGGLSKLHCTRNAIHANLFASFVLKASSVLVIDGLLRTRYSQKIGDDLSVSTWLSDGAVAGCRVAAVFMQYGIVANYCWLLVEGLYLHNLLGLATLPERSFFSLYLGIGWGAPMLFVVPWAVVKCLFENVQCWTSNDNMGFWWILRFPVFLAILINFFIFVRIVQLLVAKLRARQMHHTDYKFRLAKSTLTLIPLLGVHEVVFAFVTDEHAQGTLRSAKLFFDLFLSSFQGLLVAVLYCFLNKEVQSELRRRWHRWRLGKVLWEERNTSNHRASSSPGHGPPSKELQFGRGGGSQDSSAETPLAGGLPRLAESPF
Outline: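 Cell pellets were lysed in hypotonic Tris buffer, pH 7.5, homogenized, and spun at low then high speed to give crude membranes. Ki was derived from the fitted IC50.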

human GIP receptor = target: T2, human GIP receptor (Homo sapiens, UniProt P48546); assay: [125I]-GIP binding (SPA), human GIP receptor; conditions: read-out: hGIPR Ki, nM (SEM, n)
T2 construct: expressed in transfected cells; crude membranes
T2 sequence (P48546 22-466): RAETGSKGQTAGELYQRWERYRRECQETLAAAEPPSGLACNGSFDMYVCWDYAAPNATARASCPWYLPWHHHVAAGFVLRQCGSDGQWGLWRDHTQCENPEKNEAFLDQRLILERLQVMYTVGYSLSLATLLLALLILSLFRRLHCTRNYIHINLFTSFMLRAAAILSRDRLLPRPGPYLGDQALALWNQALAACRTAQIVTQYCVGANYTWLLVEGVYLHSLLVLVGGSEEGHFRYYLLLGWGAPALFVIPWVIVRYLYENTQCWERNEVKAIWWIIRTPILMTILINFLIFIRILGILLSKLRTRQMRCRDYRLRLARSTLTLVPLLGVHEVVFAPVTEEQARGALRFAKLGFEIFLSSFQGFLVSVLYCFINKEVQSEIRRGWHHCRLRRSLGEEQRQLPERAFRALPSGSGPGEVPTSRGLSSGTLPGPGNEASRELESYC

[1] = target: human GLP-1 receptor (GLP-1R) (Homo sapiens, UniProt P43220); assay: cAMP pharmacological functional assay in presence of casein, hGLP-1R; assay type: cell-based; conditions: HEK293 cells expressing hGLP-1R, 0.1% Casein, geometric mean; read-out: hGLP1R cAMP Rel EC50 nM (SEM, n)
human GLP-1 receptor (GLP-1R), sequence (P43220 24-463): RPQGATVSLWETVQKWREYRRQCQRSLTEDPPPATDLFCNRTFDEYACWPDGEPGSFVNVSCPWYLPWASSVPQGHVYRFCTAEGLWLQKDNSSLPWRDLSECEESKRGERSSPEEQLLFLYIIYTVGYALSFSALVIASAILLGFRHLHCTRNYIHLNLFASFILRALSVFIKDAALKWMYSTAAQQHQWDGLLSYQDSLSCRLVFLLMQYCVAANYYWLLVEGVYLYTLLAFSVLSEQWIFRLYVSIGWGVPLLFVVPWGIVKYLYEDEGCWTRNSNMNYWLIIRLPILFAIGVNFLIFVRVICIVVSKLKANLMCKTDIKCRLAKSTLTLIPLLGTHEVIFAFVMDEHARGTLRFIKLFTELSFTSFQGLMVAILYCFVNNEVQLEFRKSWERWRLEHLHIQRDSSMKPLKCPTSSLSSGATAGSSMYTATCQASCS

[2] = target: T3, gastric inhibitory peptide receptor (GIPR) (Homo sapiens, UniProt P48546); assay: cAMP pharmacological functional assay in presence of casein, hGIPR; assay type: cell-based; conditions: HEK293 cells expressing hGIPR, 0.1% Casein, geometric mean; read-out: hGIPR cAMP Rel EC50 nM (SEM, n)
T3 sequence (P48546 22-466): T2 sequence (P48546 22-466)

human GLP-1R = human GLP-1R (Homo sapiens, UniProt P43220); assay: [125I]-GLP-1 binding (SPA), human GLP-1 receptor; design: expressed in transfected cells; crude membranes; conditions: read-out: hGLP1R Ki, (nM) (SEM, n)
human GLP-1R, sequence (P43220 24-463): as above
Outline: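 Membranes: hypotonic lysis (50 mM Tris HCl, pH 7.5, protease inhibitors), Potter-Elvehjem homogenization, high-speed pellet (35000×g 1 h or 25000×g 30 min, 4° C.). Buffer: 25 mM HEPES pH 7.4, 2.5 mM CaCl2, 1 mM MgCl2. Four-parameter IC50 fit; Ki as geometric mean ± SEM.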

Row | Compound | Ki (human Gcg receptor) [nM] | Ki (human GIP receptor) [nM] | EC50 [1] [nM] | EC50 [2] [nM] | Ki (human GLP-1R) [nM]
1 | CC[C@H](C)[C@H](NC(=O)[C@H](CC(C)C)NC(=O)[C@H](Cc1ccc(O)cc1)NC(=O)[C@H](CCC(=O)O)NC(=O)[C@@H](NC(=O)[C@H](Cc1ccccc1)NC(=O)[C@H](C)NC(=O)C(C)(C)NC(=O)[C@H](CCC(N)=O)NC(=O)[C@H](C)NC(=O)[C@H](CCCCNC(=O)COCCOCCNC(=O)COCCOCCNC(=O)CC[C@H](NC(=O)CCCCCCCCCCCCCCCCCCC(=O)O)C(=O)O)NC(=O)[C@H](CCCCN)NC(=O)[C@H](CC(=O)O)NC(=O)[C@H](CC(C)C)NC(=O)[C@H](CC(C)C)NC(=O)[C@@H](NC(=O)[C@H](CO)NC(=O)[C@@H](NC(=O)[C@H](CC(=O)O)NC(=O)[C@H](CO)NC(=O)[C@@H](NC(=O)[C@](C)(Cc1ccccc1)NC(=O)[C@@H](NC(=O)CNC(=O)[C@H](CCC(=O)O)NC(=O)C(C)(C)NC(=O)[C@@H](N)Cc1ccc(O)cc1)[C@@H](C)O)[C@@H](C)O)[C@@H](C)CC)[C@@H](C)CC)[C@@H](C)CC)C(=O)N[C@@H](CCC(=O)O)C(=O)NCC(=O)NCC(=O)N1CCC[C@H]1C(=O)N[C@@H](CO)C(=O)N[C@@H](CO)C(=O)NCC(=O)N[C@@H](C)C(=O)N1CCC[C@H]1C(=O)N1CCC[C@H]1C(=O)N1CCC[C@H]1C(=O)N[C@@H](CO)C(N)=O [Example 127] (H-Y[Aib]EGT[αMeF]TSDISILLDKK([AEEA-AEEA-γGlu-C20 diacid])AQ[Aib]AFIEYLIEGGPSSGAPPPS-NH2; N-terminus assumed) | 43.6 | 0.126 | 0.145 | 0.158 | 1.86
2 | CC[C@H](C)[C@H](NC(=O)[C@H](CC(C)C)NC(=O)[C@H](Cc1ccc(O)cc1)NC(=O)[C@H](CCC(=O)O)NC(=O)[C@@H](NC(=O)[C@H](Cc1ccccc1)NC(=O)[C@H](C)NC(=O)C(C)(C)NC(=O)[C@H](CCC(N)=O)NC(=O)[C@H](C)NC(=O)[C@H](CCCCNC(=O)COCCOCCNC(=O)COCCOCCNC(=O)CC[C@H](NC(=O)CCCCCCCCCCCCCCCCCCC(=O)O)C(=O)O)NC(=O)[C@H](CCCCN)NC(=O)[C@H](CC(=O)O)NC(=O)[C@H](CC(C)C)NC(=O)[C@H](CC(C)C)NC(=O)[C@@H](NC(=O)[C@H](CO)NC(=O)[C@H](Cc1c[nH]cn1)NC(=O)[C@H](CC(=O)O)NC(=O)[C@H](CO)NC(=O)[C@@H](NC(=O)[C@](C)(Cc1ccccc1)NC(=O)[C@@H](NC(=O)CNC(=O)[C@H](CCC(=O)O)NC(=O)C(C)(C)NC(=O)[C@@H](N)Cc1ccc(O)cc1)[C@@H](C)O)[C@@H](C)O)[C@@H](C)CC)[C@@H](C)CC)C(=O)N[C@@H](CCC(=O)O)C(=O)NCC(=O)NCC(=O)N1CCC[C@H]1C(=O)N[C@@H](CO)C(=O)N[C@@H](CO)C(=O)NCC(=O)N[C@@H](C)C(=O)N1CCC[C@H]1C(=O)N1CCC[C@H]1C(=O)N1CCC[C@H]1C(=O)N[C@@H](CO)C(N)=O [Example 128] (H-Y[Aib]EGT[αMeF]TSDHSILLDKK([AEEA-AEEA-γGlu-C20 diacid])AQ[Aib]AFIEYLIEGGPSSGAPPPS-NH2) | 433 | 0.0625 | 0.0924 | 0.0694 | 1.88
3 | CC[C@H](C)[C@H](NC(=O)[C@H](CC(C)C)NC(=O)[C@H](Cc1ccc(O)cc1)NC(=O)[C@H](CCC(=O)O)NC(=O)[C@@H](NC(=O)[C@H](Cc1ccccc1)NC(=O)[C@H](C)NC(=O)C(C)(C)NC(=O)[C@H](CCC(N)=O)NC(=O)[C@H](C)NC(=O)[C@H](CCCCNC(=O)COCCOCCNC(=O)COCCOCCNC(=O)CC[C@H](NC(=O)CCCCCCCCCCCCCCCCCCC(=O)O)C(=O)O)NC(=O)[C@H](CCCCN)NC(=O)[C@H](CC(=O)O)NC(=O)[C@H](CC(C)C)NC(=O)[C@H](CC(C)C)NC(=O)[C@@H](NC(=O)[C@H](CO)NC(=O)[C@H](CC(C)C)NC(=O)[C@H](CC(=O)O)NC(=O)[C@H](CO)NC(=O)[C@@H](NC(=O)[C@](C)(Cc1ccccc1)NC(=O)[C@@H](NC(=O)CNC(=O)[C@H](CCC(=O)O)NC(=O)C(C)(C)NC(=O)[C@@H](N)Cc1ccc(O)cc1)[C@@H](C)O)[C@@H](C)O)[C@@H](C)CC)[C@@H](C)CC)C(=O)N[C@@H](CCC(=O)O)C(=O)NCC(=O)NCC(=O)N1CCC[C@H]1C(=O)N[C@@H](CO)C(=O)N[C@@H](CO)C(=O)NCC(=O)N[C@@H](C)C(=O)N1CCC[C@H]1C(=O)N1CCC[C@H]1C(=O)N1CCC[C@H]1C(=O)N[C@@H](CO)C(N)=O [Example 129] (H-Y[Aib]EGT[αMeF]TSDLSILLDKK([AEEA-AEEA-γGlu-C20 diacid])AQ[Aib]AFIEYLIEGGPSSGAPPPS-NH2) | 14.9 | 0.0278 | 0.121 | 0.106 | 1
4 | CC[C@H](C)[C@H](NC(=O)[C@H](CC(C)C)NC(=O)[C@H](Cc1ccc(O)cc1)NC(=O)[C@H](CCC(=O)O)NC(=O)[C@@H](NC(=O)[C@H](Cc1ccccc1)NC(=O)[C@H](C)NC(=O)C(C)(C)NC(=O)[C@H](CCC(N)=O)NC(=O)[C@H](C)NC(=O)[C@H](CCCCNC(=O)COCCOCCNC(=O)COCCOCCNC(=O)CC[C@H](NC(=O)CCCCCCCCCCCCCCCCCCC(=O)O)C(=O)O)NC(=O)[C@H](CCCCN)NC(=O)[C@H](CC(=O)O)NC(=O)[C@H](CC(C)C)NC(=O)[C@H](CC(C)C)NC(=O)[C@@H](NC(=O)[C@H](CO)NC(=O)[C@H](CCC(=O)O)NC(=O)[C@H](CC(=O)O)NC(=O)[C@H](CO)NC(=O)[C@@H](NC(=O)[C@](C)(Cc1ccccc1)NC(=O)[C@@H](NC(=O)CNC(=O)[C@H](CCC(=O)O)NC(=O)C(C)(C)NC(=O)[C@@H](N)Cc1ccc(O)cc1)[C@@H](C)O)[C@@H](C)O)[C@@H](C)CC)[C@@H](C)CC)C(=O)N[C@@H](CCC(=O)O)C(=O)NCC(=O)NCC(=O)N1CCC[C@H]1C(=O)N[C@@H](CO)C(=O)N[C@@H](CO)C(=O)NCC(=O)N[C@@H](C)C(=O)N1CCC[C@H]1C(=O)N1CCC[C@H]1C(=O)N1CCC[C@H]1C(=O)N[C@@H](CO)C(N)=O [Example 130] (H-Y[Aib]EGT[αMeF]TSDESILLDKK([AEEA-AEEA-γGlu-C20 diacid])AQ[Aib]AFIEYLIEGGPSSGAPPPS-NH2; N-terminus assumed) | > 1060 | 0.177 | 0.368 | 1.55 | 3.66
5 | CC[C@H](C)[C@H](NC(=O)[C@H](CC(C)C)NC(=O)[C@H](Cc1ccc(O)cc1)NC(=O)[C@H](CCC(=O)O)NC(=O)[C@@H](NC(=O)[C@H](Cc1ccccc1)NC(=O)[C@H](C)NC(=O)C(C)(C)NC(=O)[C@H](CCC(N)=O)NC(=O)[C@H](C)NC(=O)[C@H](CCCCNC(=O)COCCOCCNC(=O)COCCOCCNC(=O)CC[C@H](NC(=O)CCCCCCCCCCCCCCCCCCC(=O)O)C(=O)O)NC(=O)[C@H](CCC(=O)O)NC(=O)[C@H](CC(=O)O)NC(=O)[C@H](CC(C)C)NC(=O)C(C)(C)NC(=O)[C@@H](NC(=O)[C@H](CO)NC(=O)[C@H](Cc1ccc(O)cc1)NC(=O)[C@H](CC(=O)O)NC(=O)[C@H](CO)NC(=O)[C@@H](NC(=O)[C@](C)(Cc1ccccc1)NC(=O)[C@@H](NC(=O)CNC(=O)[C@H](CCC(=O)O)NC(=O)C(C)(C)NC(=O)CCc1ccc(O)cc1)[C@@H](C)O)[C@@H](C)O)[C@@H](C)CC)[C@@H](C)CC)C(=O)N[C@@H](CCC(=O)O)C(=O)NCC(=O)NCC(=O)N1CCC[C@H]1C(=O)N[C@@H](CO)C(=O)N[C@@H](CO)C(=O)NCC(=O)N[C@@H](C)C(=O)N1CCC[C@H]1C(=O)N1CCC[C@H]1C(=O)N1CCC[C@H]1C(=O)N[C@@H](CO)C(N)=O [Example 133] (Desaminotyrosyl-[Aib]EGT[αMeF]TSDYSI[Aib]LDEK([AEEA-AEEA-γGlu-C20 diacid])AQ[Aib]AFIEYLIEGGPSSGAPPPS-NH2) | 216 | 0.157 | 0.0436 | 0.0879 | 11.4
